From ChEMBL document CHEMBL4330120, “Identification of selective and reversible LSD1 inhibitors with anti-metastasis activity by high-throughput docking” (Bioorg Med Chem Lett, 2019)

Assays:
in vitro [1] = conditions: human, SW620 cells
Description: Cytotoxicity against human SW620 cells assessed as inhibition of cell proliferation at 100 uM after 4 hrs by MTT assay relative to control

in vitro [2] = conditions: human, HCT8 cells
Description: Cytotoxicity against human HCT8 cells assessed as inhibition of cell proliferation at 100 uM after 4 hrs by MTT assay relative to control

[3] = biological target: T1, Amine oxidase [flavin-containing] A (Homo sapiens, UniProt P21397); test: biochemical
T1 sequence (P21397 whole entry): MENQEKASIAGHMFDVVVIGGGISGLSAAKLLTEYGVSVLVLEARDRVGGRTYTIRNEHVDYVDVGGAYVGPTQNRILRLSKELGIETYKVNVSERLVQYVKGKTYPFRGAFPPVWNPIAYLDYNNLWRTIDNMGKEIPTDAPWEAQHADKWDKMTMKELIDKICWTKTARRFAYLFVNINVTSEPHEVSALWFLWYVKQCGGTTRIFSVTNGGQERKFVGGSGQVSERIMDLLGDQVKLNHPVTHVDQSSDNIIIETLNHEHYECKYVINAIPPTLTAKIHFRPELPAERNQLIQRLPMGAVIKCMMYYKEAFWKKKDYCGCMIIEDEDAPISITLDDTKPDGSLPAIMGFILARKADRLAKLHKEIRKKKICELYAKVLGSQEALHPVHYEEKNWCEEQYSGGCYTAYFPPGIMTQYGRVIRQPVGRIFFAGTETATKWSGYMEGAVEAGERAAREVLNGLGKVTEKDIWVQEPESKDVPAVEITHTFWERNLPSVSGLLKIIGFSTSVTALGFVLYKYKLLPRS
Description: Inhibition of recombinant human MAOA expressed in baculovirus infected BTI insect cells using beetle luciferin as substrate after 1 hr by MAO-Glo assay

[4] = biological target: T2, Amine oxidase [flavin-containing] B (Homo sapiens, UniProt P27338); test: biochemical
T2 sequence (P27338 whole entry): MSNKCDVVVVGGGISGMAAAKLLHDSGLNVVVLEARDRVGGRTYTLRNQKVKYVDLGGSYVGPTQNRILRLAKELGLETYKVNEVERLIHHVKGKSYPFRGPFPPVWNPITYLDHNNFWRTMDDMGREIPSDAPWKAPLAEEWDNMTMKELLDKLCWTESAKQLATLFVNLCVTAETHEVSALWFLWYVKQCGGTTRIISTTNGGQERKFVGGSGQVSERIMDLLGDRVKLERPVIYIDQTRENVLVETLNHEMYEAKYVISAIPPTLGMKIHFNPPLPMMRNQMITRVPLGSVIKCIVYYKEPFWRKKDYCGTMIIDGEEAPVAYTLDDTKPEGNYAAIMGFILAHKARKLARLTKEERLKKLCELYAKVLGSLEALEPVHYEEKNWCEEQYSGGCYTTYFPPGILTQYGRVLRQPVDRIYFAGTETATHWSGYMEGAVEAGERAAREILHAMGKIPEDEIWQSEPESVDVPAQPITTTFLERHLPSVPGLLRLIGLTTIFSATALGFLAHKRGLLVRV
Description: Inhibition of recombinant human MAOB expressed in baculovirus infected BTI insect cells using beetle luciferin as substrate after 1 hr by MAO-Glo assay

[5] = biological target: Lysine-specific histone demethylase 1A (Homo sapiens, UniProt O60341)
Description: Inhibition of human N-terminal GST-tagged LSD1 isoform2 (158 to end residues) expressed in Escherichia coli using methylated peptide as substrate preincubated with substrate for 15 mins followed by enzyme addition and measured after 30 mins by amplex red and horseradish peroxidase based fluorescence assay

| inhibition at 4 h, 100 µM (in vitro [1]) [%] | inhibition at 4 h, 100 µM (in vitro [2]) [%] | IC50 [3] [µM] | IC50 [4] [µM] | IC50 [5] [µM] | SMILES |
| --- | --- | --- | --- | --- | --- |
| 35 | 35 | > 200 | > 200 |  | O=C(CCC1NC(=O)NC1=O)NCCc1c[nH]c2ccccc12 (stereo not given) |
|  |  |  |  | > 100 | Cc1nc(-c2ccc(CN(C)Cc3cccc4cnccc34)cc2)[nH]c(=O)c1F |
